Measured values: publication PMC6797481, “Identification of an allosteric binding site on the human glycine transporter, GlyT2, for bioactive lipid analgesics” (eLife, 2019)
Substitutions are numbered along the chain they refer to.

Key:
[1] = biological target: T1, GlyT1 L425I mutant (Homo sapiens, UniProt P48067, L439I); experiment: Glycine transport currents, two electrode voltage clamp, oocytes expressing GlyT1 L425I; assay type: cell-based; settings: for % Max. inhibition: mean ± SEM; for sensitivity of GlyT1 L425I to inhibition: similar to the WT GlyT1 response
T1 construct: expressed in transfected cells; host or cells: Xenopus laevis oocytes (cRNA injection)
T1 sequence (P48067 1-652 isoform P48067-3 L385I): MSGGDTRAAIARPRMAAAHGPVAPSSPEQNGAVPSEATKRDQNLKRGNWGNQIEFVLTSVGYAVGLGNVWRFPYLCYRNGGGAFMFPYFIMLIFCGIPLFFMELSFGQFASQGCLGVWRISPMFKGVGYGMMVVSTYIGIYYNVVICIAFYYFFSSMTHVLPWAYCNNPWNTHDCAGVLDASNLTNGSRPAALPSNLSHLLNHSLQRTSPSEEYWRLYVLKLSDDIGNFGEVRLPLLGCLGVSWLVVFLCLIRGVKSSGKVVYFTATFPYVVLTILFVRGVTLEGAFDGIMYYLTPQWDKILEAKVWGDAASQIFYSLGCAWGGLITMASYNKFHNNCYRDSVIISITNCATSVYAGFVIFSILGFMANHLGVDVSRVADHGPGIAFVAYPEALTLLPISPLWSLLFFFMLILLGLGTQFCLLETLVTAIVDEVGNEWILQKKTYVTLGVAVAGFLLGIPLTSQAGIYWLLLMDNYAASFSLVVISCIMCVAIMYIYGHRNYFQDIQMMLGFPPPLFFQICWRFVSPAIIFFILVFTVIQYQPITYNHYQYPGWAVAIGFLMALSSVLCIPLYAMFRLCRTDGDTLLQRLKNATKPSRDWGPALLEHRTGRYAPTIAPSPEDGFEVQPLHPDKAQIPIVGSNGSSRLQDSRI
Description: (§1) Glycine was first applied to establish maximal transport current.
(§2) Compounds were tested for inhibition of glycine transport on Xenopus laevis oocytes expressing mutant GlyT1 and GlyT2 transporters. n values are in brackets, with measurements taken from at least 2 batches of oocytes.

[2] = biological target: T2, GlyT2 Y550L mutant (Homo sapiens, UniProt Q9Y345, Y550L); experiment: Glycine transport currents, two electrode voltage clamp, oocytes expressing GlyT2 Y550L; assay type: cell-based; settings: for % Max. inhibition: mean ± SEM
T2 construct: expressed in transfected cells; host or cells: Xenopus laevis oocytes (cRNA injection)
T2 sequence (Q9Y345 1-797 Y550L): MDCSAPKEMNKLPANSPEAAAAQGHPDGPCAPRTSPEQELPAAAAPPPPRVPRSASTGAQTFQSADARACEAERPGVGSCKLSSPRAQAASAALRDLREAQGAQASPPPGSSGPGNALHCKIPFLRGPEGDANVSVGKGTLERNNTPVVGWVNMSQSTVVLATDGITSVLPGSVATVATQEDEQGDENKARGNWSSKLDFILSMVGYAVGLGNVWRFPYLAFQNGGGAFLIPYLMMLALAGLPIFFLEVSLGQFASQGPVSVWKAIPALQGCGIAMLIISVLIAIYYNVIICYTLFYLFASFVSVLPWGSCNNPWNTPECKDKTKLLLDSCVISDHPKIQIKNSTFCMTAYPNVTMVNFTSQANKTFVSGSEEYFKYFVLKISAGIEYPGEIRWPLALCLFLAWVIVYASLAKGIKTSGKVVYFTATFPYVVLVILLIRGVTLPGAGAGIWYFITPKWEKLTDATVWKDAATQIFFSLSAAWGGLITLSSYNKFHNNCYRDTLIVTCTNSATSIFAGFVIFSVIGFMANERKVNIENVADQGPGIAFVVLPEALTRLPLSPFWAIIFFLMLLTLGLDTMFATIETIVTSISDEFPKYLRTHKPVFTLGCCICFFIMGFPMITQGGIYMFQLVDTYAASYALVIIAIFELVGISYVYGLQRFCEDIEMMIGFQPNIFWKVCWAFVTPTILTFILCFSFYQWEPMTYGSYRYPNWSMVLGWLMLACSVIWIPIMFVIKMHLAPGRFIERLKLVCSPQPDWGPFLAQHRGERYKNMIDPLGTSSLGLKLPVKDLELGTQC
Description: as §1, §2

[3] = test system: GlyT1 WT; set-up: method as in earlier work; settings: previously published; cited from earlier work
[4] = biological target: T3, GlyT2 I545L mutant (Homo sapiens, UniProt Q9Y345, I545L); experiment: Glycine transport currents, two electrode voltage clamp, Xenopus laevis oocytes expressing GlyT2 I545L; assay type: cell-based; settings: for % Max. inhibition: mean ± SEM
T3 construct: expressed in transfected cells; host or cells: Xenopus laevis oocytes (cRNA injection)
T3 sequence (Q9Y345 1-797 I545L): T2 sequence (Q9Y345 1-797 Y550L) with I545L, L550Y
Description: as §1, §2

[5] = GlyT1 L425I, greater than maximum concentration applied (footnote a)
[6] = GlyT2 Y550L, greater than maximum concentration applied (footnote a)
[7] = GlyT2 I545L, greater than maximum concentration applied (footnote a)

Molecule | IC50 [1, 5] | % Max. inhibition ([1]; GlyT1 L425I) | IC50 [3] | IC50 ([2]; GlyT2 Y550L, mean (95% CI)) | % Max. inhibition ([2]; GlyT2 Y550L) | IC50 [2, 6] | IC50 [4, 7] | % Max. inhibition ([4]; GlyT2 I545L) | other results
NCC(=O)O [Glycine] | – | – | – | – | – | – | – | – | EC50 ([1]; glycine transport, GlyT1 mutant printed I425L (EL4)): 45.1 ± 9.6 µM; EC50 ([2]; glycine transport, GlyT2 Y550L (EL4)): 62.2 ± 11.4 µM
CCCCC/C=C\C/C=C\C/C=C\C/C=C\CCCC(=O)NCC(=O)O [N-arachidonyl Glycine, reference compound] | > 10 µM | 31.6 ± 6.9 (p=0.0361) % | > 10 µM | – | – | – | – | – | –
CCCCCCCC/C=C\CCCCCCCC(=O)NCC(=O)O [N-oleoyl Glycine, reference compound] | > 10 µM | – | > 10 µM | 0.829 µM | 34.8 ± 9.1 (p=0.0011) % | – | – | – | % Max. inhibition (% inhibition at the highest concentration of inhibitor used) ([1]; GlyT1 L425I, footnote b): 28.5 ± 5.3^b (p=0.0564) %; sensitivity of GlyT1 L425I to inhibition [1]: insensitive
CCCCCCCC/C=C\CCCCCCCC(=O)O[C@H](CC(=O)[O-])C[N+](C)(C)C [oleoyl L-Carnitine, reference compound] | – | 74.6% | > 10 µM | – | 17.3 ± 1.4 (p=0.0001) % | > 3 µM | – | – | –
CCCCCCCC/C=C\CCCCCCCC(=O)N[C@@H](CC(=O)O)C(=O)O [oleoyl l-Aspartate] | – | – | > 10 µM | – | – | > 3 µM | > 10 µM | 4.9 ± 6.4 (p=0.0001) % | % Max. inhibition (% inhibition at the highest concentration of inhibitor used) ([2]; GlyT2 Y550L, footnote b): 7.0 ± 0.8^b (p=0.0001) %
CCCCCCCC/C=C\CCCCCCCC(=O)N[C@@H](CCCCN)C(=O)O [oleoyl l-Lysine] | – | 95.6% | > 3 µM | 0.21 µM | 48.2 ± 4.1 (p=0.0001) % | – | – | 80.7% | fold lower apparent affinity at GlyT1 L425I ([1]; GlyT1 L425I compared with WT GlyT2): 9 fold; IC50 ([1]; GlyT1 L425I, mean (95% CI)): 0.236 µM; fold lower potency at I545L ([4]; GlyT2 I545L compared with WT GlyT2): ~ 17 fold; IC50 ([4]; GlyT2 I545L, mean (95% CI)): 0.443 µM
CCCCCCCC/C=C\CCCCCCCC(=O)N[C@@H](Cc1c[nH]c2ccccc12)C(=O)O [oleoyl l-Tryptophan] | > 3 µM | 35.7 ± 13.2 (p=0.2787) % | > 10 µM | – | 16.5 ± 1.7 (p=0.0001) % | > 3 µM | > 10 µM | 20.2 ± 1.7 (p=0.0001) % | sensitivity of GlyT1 L425I to inhibition [1]: insensitive
CCCCCCCC/C=C\CCCCCCCC(=O)N[C@H](C(=O)O)C(C)C [oleoyl l-Valine] | – | – | > 30 µM | 2.93 µM | 57.0 ± 5.1 (p=0.0028) % | – | > 10 µM | – | % Max. inhibition (% inhibition at the highest concentration of inhibitor used) ([4]; GlyT2 I545L, footnote b): 22.5 ± 8.0^b (p=0.0001) %
oleoyl d-Lysine | – | – | > 3 µM | – | 38.4 ± 10.0 (p=0.0010) % | > 3 µM | – | – | –
